Tests used:
[1] = test system: JIMT-1 human breast cancer cell line; test: Cell viability assay (SRB) in JIMT-1; assay type: cell-based; conditions: 72 hours after treatment, read-out: JIMT1 IC50
How it was run: (§1)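 JIMT-1 (3×10^3 cells/well) and HCT-116 (4×10^3 cells/well) cells were seeded and treated with inhibitors at several concentrations 24 h later. Viability was read by sulforhodamine B staining 72 h after treatment. JIMT-1 was grown in DMEM and HCT-116 in McCoy's 5A, both with FBS.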

[2] = test system: HCT-116 human colon carcinoma cell line; test: Cell viability assay (SRB) in HCT-116; assay type: cell-based; conditions: 72 hours after treatment, read-out: HCT116 IC50
How it was run: as §1

IC50 [1] [µM]	IC50 [2] [µM]	Structure (SMILES)
0.142	≥ 10	CC1(C)CN(c2nccc(Nc3cc(-c4ccc(OC(F)F)cc4)n[nH]3)n2)C1 [Compound 247, N-(3-(4-(difluoromethoxy)phenyl)-1H-pyrazol-5-yl)-2-(3,3-dimethylazetidin-1-yl)pyrimidin-4-amine]
1.56	≥ 10	CC1(F)CN(c2nccc(Nc3cc(-c4ccc(OC(F)F)cc4)n[nH]3)n2)C1 [Compound 248, N-(3-(4-(difluoromethoxy)phenyl)-1H-pyrazol-5-yl)-2-(3-fluoro-3-methylazetidin-1-yl)pyrimidin-4-amine]
0.305	≥ 10	FC(F)Oc1ccc(-c2cc(Nc3ccnc(N4CC(F)(F)C4)n3)[nH]n2)cc1 [Compound 249, 2-(3,3-difluoroazetidin-1-yl)-N-(3-(4-(difluoromethoxy)phenyl)-1H-pyrazol-5-yl)pyrimidin-4-amine]
0.122	1.26	FC(F)Oc1ccc(-c2cc(Nc3ccnc(N4CCC(F)(F)C4)n3)[nH]n2)cc1 [Compound 252, N-(3-(4-(difluoromethoxy)phenyl)-1H-pyrazol-5-yl)-2-(3,3-difluoropyrrolidin-1-yl)pyrimidin-4-amine]
0.148	1.56	FC(F)Oc1ccc(-c2cc(Nc3ccnc(N4CCC(F)(F)CC4)n3)[nH]n2)cc1 [Compound 253, N-(3-(4-(difluoromethoxy)phenyl)-1H-pyrazol-5-yl)-2-(4,4-difluoropiperidin-1-yl)pyrimidin-4-amine]
0.279	0.312	FC(F)Oc1ccc(-c2cc(Nc3ccnc(N4CCCOCC4)n3)[nH]n2)cc1 [Compound 255, N-(3-(4-(difluoromethoxy)phenyl)-1H-pyrazol-5-yl)-2-(1,4-oxazepan-4-yl)pyrimidin-4-amine]
0.648	8.98	FC(F)Oc1ccc(-c2cc(Nc3ccnc(N4CC5CCC(C4)O5)n3)[nH]n2)cc1 [Compound 260, 2-(8-oxa-3-azabicyclo[3.2.1]octan-3-yl)-N-(3-(4-(difluoromethoxy)phenyl)-1H-pyrazol-5-yl)pyrimidin-4-amine]
0.4	7.2	FC(F)Oc1ccc(-c2cc(Nc3ccnc(N4C[C@@H]5C[C@H]4CO5)n3)[nH]n2)cc1 [Compound 261, 2-((1S,4S)-2-oxa-5-azabicyclo[2.2.1]heptan-5-yl)-N-(3-(4-(difluoromethoxy)phenyl)-1H-pyrazol-5-yl)pyrimidin-4-amine]
0.329	≥ 10	FC(F)Oc1ccc(-c2cc(Nc3ccnc(N4C[C@H]5C[C@@H]4CO5)n3)[nH]n2)cc1 [Compound 262, 2-((1R,4R)-2-oxa-5-azabicyclo[2.2.1]heptan-5-yl)-N-(3-(4-(difluoromethoxy)phenyl)-1H-pyrazol-5-yl)pyrimidin-4-amine]
0.03	0.079	C[C@H]1COCCN1c1nccc(Nc2cc(-c3ccc(OC(F)F)cc3)n[nH]2)n1 [Compound 263, (S)-N-(3-(4-(difluoromethoxy)phenyl)-1H-pyrazol-5-yl)-2-(3-methylmorpholino)pyrimidin-4-amine]
0.127	0.302	C[C@@H]1COCCN1c1nccc(Nc2cc(-c3ccc(OC(F)F)cc3)n[nH]2)n1 [Compound 264, (R)-N-(3-(4-(difluoromethoxy)phenyl)-1H-pyrazol-5-yl)-2-(3-methylmorpholino)pyrimidin-4-amine]
0.013	0.046	COc1ccc(-c2cc(N(C)c3ccnc(N4C[C@@H](C)O[C@@H](C)C4)n3)[nH]n2)c(F)c1 [Compound 275, 2-((2R,6S)-2,6-dimethylmorpholino)-N-(3-(2-fluoro-4-methoxyphenyl)-1H-pyrazol-5-yl)-N-methylpyrimidin-4-amine]
0.204	0.269	C[C@@H]1CN(c2nccc(N(C)c3cc(-c4ccc(OCF)cc4)n[nH]3)n2)C[C@H](C)O1 [Compound 277, 2-((2R,6S)-2,6-dimethylmorpholino)-N-(3-(4-(fluoromethoxy)phenyl)-1H-pyrazol-5-yl)-N-methylpyrimidin-4-amine]
0.131	0.436	COc1ccc(-c2cc(Nc3nc(N4C[C@@H](C)O[C@@H](C)C4)ncc3Cl)[nH]n2)c(F)c1 [Compound 281, 5-chloro-2-((2R,6S)-2,6-dimethylmorpholino)-N-(3-(2-fluoro-4-methoxyphenyl)-1H-pyrazol-5-yl)pyrimidin-4-amine]
0.045	0.046	COc1ccc(-c2cc(Nc3nc(N4C[C@@H](C)O[C@@H](C)C4)ncc3F)[nH]n2)c(F)c1 [Compound 282, 2-((2R,6S)-2,6-dimethylmorpholino)-5-fluoro-N-(3-(2-fluoro-4-methoxyphenyl)-1H-pyrazol-5-yl)pyrimidin-4-amine]
1.69	5.22	CC1COCC(C)N1c1ncc(F)c(Nc2cc(-c3ccc(OC(F)F)cc3)n[nH]2)n1 (stereo not shown) [Compound 286, N-(3-(4-(difluoromethoxy)phenyl)-1H-pyrazol-5-yl)-2-(3,5-dimethylmorpholino)-5-fluoropyrimidin-4-amine]
0.049	0.091	C[C@@H]1CN(c2ncc(F)c(Nc3cc(-c4ccc(OC(F)F)cc4)n[nH]3)n2)C[C@H](C)O1 [Compound 287, N-(3-(4-(difluoromethoxy)phenyl)-1H-pyrazol-5-yl)-2-((2R,6S)-2,6-dimethylmorpholino)-5-fluoropyrimidin-4-amine]
0.443	0.456	C[C@@H]1CN(c2ncc(Cl)c(Nc3cc(-c4ccc(OC(F)F)cc4)n[nH]3)n2)C[C@H](C)O1 [Compound 288, 5-chloro-N-(3-(4-(difluoromethoxy)phenyl)-1H-pyrazol-5-yl)-2-((2R,6S)-2,6-dimethylmorpholino)pyrimidin-4-amine]
0.18	0.371	Fc1cnc(N2CCC2)nc1Nc1cc(-c2ccc(OC(F)F)cc2)n[nH]1 [Compound 289, 2-(azetidin-1-yl)-N-(3-(4-(difluoromethoxy)phenyl)-1H-pyrazol-5-yl)-5-fluoropyrimidin-4-amine]
0.278	0.337	CC1CCCN1c1ncc(F)c(Nc2cc(-c3ccc(OC(F)F)cc3)n[nH]2)n1 (stereo not shown) [Compound 290, N-(3-(4-(difluoromethoxy)phenyl)-1H-pyrazol-5-yl)-5-fluoro-2-(2-methylpyrrolidin-1-yl)pyrimidin-4-amine]
0.777	1.71	CC1COCCN1c1ncc(F)c(Nc2cc(-c3ccc(OC(F)F)cc3)n[nH]2)n1 (stereo not shown) [Compound 291, N-(3-(4-(difluoromethoxy)phenyl)-1H-pyrazol-5-yl)-5-fluoro-2-(3-methylmorpholino)pyrimidin-4-amine]
0.659	0.996	C[C@@H]1CN(c2ncc(F)c(Nc3cc(-c4ccc(OC(F)F)cc4)n[nH]3)n2)C[C@@H](C)O1 [Compound 292, N-(3-(4-(difluoromethoxy)phenyl)-1H-pyrazol-5-yl)-2-((2R,6R)-2,6-dimethylmorpholino)-5-fluoropyrimidin-4-amine]
0.255	0.332	C[C@H]1CN(c2ncc(F)c(Nc3cc(-c4ccc(OC(F)F)cc4)n[nH]3)n2)C[C@H](C)O1 [Compound 293, N-(3-(4-(difluoromethoxy)phenyl)-1H-pyrazol-5-yl)-2-((2S,6S)-2,6-dimethylmorpholino)-5-fluoropyrimidin-4-amine]
0.636	1.14	C[C@H]1COCCN1c1ncc(F)c(Nc2cc(-c3ccc(OC(F)F)cc3)n[nH]2)n1 [Compound 294, (S)-N-(3-(4-(difluoromethoxy)phenyl)-1H-pyrazol-5-yl)-5-fluoro-2-(3-methylmorpholino)pyrimidin-4-amine]
≥ 10	7.51	C[C@@H]1COCCN1c1ncc(F)c(Nc2cc(-c3ccc(OC(F)F)cc3)n[nH]2)n1 [Compound 295, (R)-N-(3-(4-(difluoromethoxy)phenyl)-1H-pyrazol-5-yl)-5-fluoro-2-(3-methylmorpholino)pyrimidin-4-amine]
2.35	2.96	C[C@@H]1CN(c2ncnc(Nc3cc(-c4ccc(OC(F)F)cc4)n[nH]3)n2)C[C@H](C)O1 [Compound 310, N-(3-(4-(difluoromethoxy)phenyl)-1H-pyrazol-5-yl)-4-((2R,6S)-2,6-dimethylmorpholino)-1,3,5-triazin-2-amine]
0.012	0.024	COc1ccc(-c2cc(Nc3ccnc(C4=CCOCC4)n3)[nH]n2)c(F)c1 [Compound 317, 2-(3,6-dihydro-2H-pyran-4-yl)-N-(3-(2-fluoro-4-methoxyphenyl)-1H-pyrazol-5-yl)pyrimidin-4-amine]
0.319	0.293	COc1ccc(-c2cc(Nc3ccnc(C4CCOCC4)n3)[nH]n2)c(F)c1 [Compound 318, N-(3-(2-fluoro-4-methoxyphenyl)-1H-pyrazol-5-yl)-2-(tetrahydro-2H-pyran-4-yl)pyrimidin-4-amine]

Structure (SMILES)	IC50 [1] [µM]	IC50 [2] [µM]
FC(F)Oc1ccc(-c2cc(Nc3ccnc(N4C5CCC4COC5)n3)[nH]n2)cc1 [Compound 259, 2-(3-oxa-8-azabicyclo[3.2.1]octan-8-yl)-N-(3-(4-(difluoromethoxy)phenyl)-1H-pyrazol-5-yl)pyrimidin-4-amine]	0.065	≥ 10

From patent publication US20240374590A1, “COMPOSITIONS AND METHODS FOR TREATING CANCER” (A2A PHARMACEUTICALS, INC., priority 2021, published 2024)
